Key:
[1] = species on record: Homo sapiens
[2] = target: ADP-ribosylation factor-like protein 1 (Homo sapiens) (UniProt P40616)
[3] = target: Receptor-type tyrosine-protein kinase FLT3 (Homo sapiens) (UniProt P36888)
[4] = target: Src substrate cortactin (Homo sapiens) (UniProt Q14247)
[5] = target: Nucleolar and coiled-body phosphoprotein 1 (Homo sapiens) (UniProt Q14978)
[6] = target: Chitobiosyldiphosphodolichol beta-mannosyltransferase (Homo sapiens) (UniProt Q9BT22)
[7] = species on record: Homo sapiens; remark: listed apart in the source
[8] = target: Monocarboxylate transporter 1 (Homo sapiens) (UniProt P53985)
[9] = target: Acidic fibroblast growth factor intracellular-binding protein (Homo sapiens) (UniProt O43427)
Acidic fibroblast growth factor intracellular-binding protein (Homo sapiens), sequence (O43427 whole entry): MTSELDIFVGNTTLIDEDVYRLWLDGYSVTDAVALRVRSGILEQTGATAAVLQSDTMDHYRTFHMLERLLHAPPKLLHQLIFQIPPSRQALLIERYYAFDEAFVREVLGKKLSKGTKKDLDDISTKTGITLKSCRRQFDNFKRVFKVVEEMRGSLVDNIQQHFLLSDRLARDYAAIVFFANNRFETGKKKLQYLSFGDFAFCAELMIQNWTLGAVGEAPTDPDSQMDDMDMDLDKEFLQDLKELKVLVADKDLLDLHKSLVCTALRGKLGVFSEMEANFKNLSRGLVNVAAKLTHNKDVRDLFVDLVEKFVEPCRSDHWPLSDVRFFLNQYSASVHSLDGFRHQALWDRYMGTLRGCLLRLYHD

[10] = target: Calreticulin (Homo sapiens) (UniProt P27797)
Calreticulin (Homo sapiens), sequence (P27797 whole entry): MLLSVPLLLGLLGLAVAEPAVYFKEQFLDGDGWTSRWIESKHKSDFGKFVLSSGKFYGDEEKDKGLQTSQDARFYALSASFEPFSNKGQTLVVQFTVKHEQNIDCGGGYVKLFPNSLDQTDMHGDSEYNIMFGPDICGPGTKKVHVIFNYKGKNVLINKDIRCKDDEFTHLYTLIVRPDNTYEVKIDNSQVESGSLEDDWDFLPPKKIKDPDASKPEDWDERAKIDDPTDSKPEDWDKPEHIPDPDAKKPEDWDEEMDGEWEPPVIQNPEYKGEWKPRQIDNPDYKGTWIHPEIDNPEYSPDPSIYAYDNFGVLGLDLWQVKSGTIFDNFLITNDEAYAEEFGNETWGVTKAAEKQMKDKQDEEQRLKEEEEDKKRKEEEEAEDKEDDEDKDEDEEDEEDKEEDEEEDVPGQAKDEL

[11] = target: Serine/threonine-protein kinase A-Raf (Homo sapiens) (UniProt P10398)
[12] = target: Nuclear mitotic apparatus protein 1 (Homo sapiens) (UniProt Q14980)
[13] = species on record: Homo sapiens; remark: listed apart in the source
[14] = target: Lamin-B1 (Homo sapiens) (UniProt P20700)
[15] = target: Glutaryl-CoA dehydrogenase, mitochondrial (Homo sapiens) (UniProt Q92947)
[16] = target: G1/S-specific cyclin-E1 (Homo sapiens) (UniProt P24864)
[17] = target: CDK-activating kinase assembly factor MAT1 (Homo sapiens) (UniProt P51948)
CDK-activating kinase assembly factor MAT1 (Homo sapiens), sequence (P51948 whole entry): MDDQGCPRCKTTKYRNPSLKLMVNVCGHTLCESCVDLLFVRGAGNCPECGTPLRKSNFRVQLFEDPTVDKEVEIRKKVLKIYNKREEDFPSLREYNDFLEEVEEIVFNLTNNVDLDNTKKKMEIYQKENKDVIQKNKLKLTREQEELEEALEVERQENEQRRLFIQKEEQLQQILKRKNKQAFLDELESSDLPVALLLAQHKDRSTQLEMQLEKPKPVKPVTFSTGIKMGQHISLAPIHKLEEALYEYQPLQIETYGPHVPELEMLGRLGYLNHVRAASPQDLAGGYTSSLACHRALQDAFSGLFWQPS

[18] = target: Nucleolysin TIAR (Homo sapiens) (UniProt Q01085)
[19] = target: Ribosyldihydronicotinamide dehydrogenase [quinone] (Homo sapiens) (UniProt P16083)
[20] = species on record: Homo sapiens; remark: listed apart in the source
[21] = target: Elongation factor 2 (Homo sapiens) (UniProt P13639)
[22] = target: 26S proteasome regulatory subunit 4 (Homo sapiens) (UniProt P62191)
26S proteasome regulatory subunit 4 (Homo sapiens), sequence (P62191 whole entry): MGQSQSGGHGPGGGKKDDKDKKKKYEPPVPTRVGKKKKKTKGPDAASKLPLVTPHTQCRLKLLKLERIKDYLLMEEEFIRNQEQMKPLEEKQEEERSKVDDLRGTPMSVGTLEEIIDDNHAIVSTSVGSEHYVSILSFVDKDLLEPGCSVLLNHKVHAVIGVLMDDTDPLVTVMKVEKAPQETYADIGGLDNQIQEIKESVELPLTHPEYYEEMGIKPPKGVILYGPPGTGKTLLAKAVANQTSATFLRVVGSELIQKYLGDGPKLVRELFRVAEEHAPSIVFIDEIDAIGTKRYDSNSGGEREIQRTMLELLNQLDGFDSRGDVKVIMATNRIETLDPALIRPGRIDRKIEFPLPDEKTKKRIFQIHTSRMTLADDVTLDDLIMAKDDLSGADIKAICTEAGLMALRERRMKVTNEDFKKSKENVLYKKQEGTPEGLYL

[23] = target: Elongation factor 1-gamma (Homo sapiens) (UniProt P26641)
Elongation factor 1-gamma (Homo sapiens), sequence (P26641 whole entry): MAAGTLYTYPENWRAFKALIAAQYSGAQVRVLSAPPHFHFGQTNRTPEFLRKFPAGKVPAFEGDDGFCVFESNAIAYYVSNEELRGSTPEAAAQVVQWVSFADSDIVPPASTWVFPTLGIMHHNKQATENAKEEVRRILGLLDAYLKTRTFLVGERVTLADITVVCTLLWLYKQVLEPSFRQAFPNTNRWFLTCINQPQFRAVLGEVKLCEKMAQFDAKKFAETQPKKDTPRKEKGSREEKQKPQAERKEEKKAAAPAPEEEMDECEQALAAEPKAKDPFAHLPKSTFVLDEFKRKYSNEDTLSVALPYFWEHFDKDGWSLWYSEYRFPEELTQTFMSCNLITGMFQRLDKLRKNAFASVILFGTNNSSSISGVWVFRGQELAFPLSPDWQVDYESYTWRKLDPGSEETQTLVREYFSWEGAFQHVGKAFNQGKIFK

[24] = target: Clathrin heavy chain 1 (Homo sapiens) (UniProt Q00610)
[25] = target: Leucine--tRNA ligase, cytoplasmic (Homo sapiens) (UniProt Q9P2J5)
[26] = target: Golgi apparatus protein 1 (Homo sapiens) (UniProt Q92896)
[27] = target: Cyclin-dependent kinase-like 5 (Homo sapiens) (UniProt O76039)
[28] = target: Katanin p60 ATPase-containing subunit A-like 2 (Homo sapiens) (UniProt Q8IYT4)
[29] = target: Protein kinase C theta type (Homo sapiens) (UniProt Q04759)
[30] = target: Tubulin beta-6 chain (Homo sapiens) (UniProt Q9BUF5)
[31] = target: Uncharacterized protein FLJ45252 (Homo sapiens) (UniProt Q6ZSR9)
[32] = target: Ribosomal protein S6 kinase alpha-6 (Homo sapiens) (UniProt Q9UK32)
[33] = target: Ribosomal protein S6 kinase alpha-3 (Homo sapiens) (UniProt P51812)
[34] = target: Heterogeneous nuclear ribonucleoprotein F (Homo sapiens) (UniProt P52597)
[35] = target: Tyrosine-protein kinase Tec (Homo sapiens) (UniProt P42680)
[36] = target: T-complex protein 1 subunit alpha (Homo sapiens) (UniProt P17987)
[37] = target: Small ribosomal subunit protein uS14 (Homo sapiens) (UniProt P62273)
[38] = target: Actin-related protein 2/3 complex subunit 4 (Homo sapiens) (UniProt P59998)
[39] = target: Inner centromere protein (Homo sapiens) (UniProt Q9NQS7)
Inner centromere protein (Homo sapiens), sequence (Q9NQS7 whole entry): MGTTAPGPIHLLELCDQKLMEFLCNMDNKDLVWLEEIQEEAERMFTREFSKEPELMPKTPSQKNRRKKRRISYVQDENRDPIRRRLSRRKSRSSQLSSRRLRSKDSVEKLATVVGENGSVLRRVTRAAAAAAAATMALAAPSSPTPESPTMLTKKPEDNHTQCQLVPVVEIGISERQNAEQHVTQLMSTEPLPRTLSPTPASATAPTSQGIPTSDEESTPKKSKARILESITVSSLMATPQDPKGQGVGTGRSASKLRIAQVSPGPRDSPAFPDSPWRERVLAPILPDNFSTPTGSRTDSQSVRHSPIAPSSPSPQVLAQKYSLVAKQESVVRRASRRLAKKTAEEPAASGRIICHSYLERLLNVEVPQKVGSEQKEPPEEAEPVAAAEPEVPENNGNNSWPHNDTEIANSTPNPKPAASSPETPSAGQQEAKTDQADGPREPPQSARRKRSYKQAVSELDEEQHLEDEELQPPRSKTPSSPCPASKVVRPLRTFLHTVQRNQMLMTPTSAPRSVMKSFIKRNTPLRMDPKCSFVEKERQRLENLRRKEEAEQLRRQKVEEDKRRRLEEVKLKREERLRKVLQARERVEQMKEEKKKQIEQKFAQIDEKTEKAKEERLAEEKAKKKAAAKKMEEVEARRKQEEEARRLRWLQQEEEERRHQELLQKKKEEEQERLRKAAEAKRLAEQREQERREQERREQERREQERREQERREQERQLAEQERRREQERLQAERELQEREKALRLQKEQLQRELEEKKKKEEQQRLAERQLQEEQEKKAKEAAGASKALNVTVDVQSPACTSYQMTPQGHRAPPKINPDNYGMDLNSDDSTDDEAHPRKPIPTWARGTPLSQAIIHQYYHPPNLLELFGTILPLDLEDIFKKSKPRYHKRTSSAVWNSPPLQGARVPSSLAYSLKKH

[40] = target: Heat shock protein 105 kDa (Homo sapiens) (UniProt Q92598)
[41] = target: X-ray repair cross-complementing protein 5 (Homo sapiens) (UniProt P13010)
[42] = target: Squalene synthase (Homo sapiens) (UniProt P37268)
Squalene synthase (Homo sapiens), sequence (P37268 whole entry): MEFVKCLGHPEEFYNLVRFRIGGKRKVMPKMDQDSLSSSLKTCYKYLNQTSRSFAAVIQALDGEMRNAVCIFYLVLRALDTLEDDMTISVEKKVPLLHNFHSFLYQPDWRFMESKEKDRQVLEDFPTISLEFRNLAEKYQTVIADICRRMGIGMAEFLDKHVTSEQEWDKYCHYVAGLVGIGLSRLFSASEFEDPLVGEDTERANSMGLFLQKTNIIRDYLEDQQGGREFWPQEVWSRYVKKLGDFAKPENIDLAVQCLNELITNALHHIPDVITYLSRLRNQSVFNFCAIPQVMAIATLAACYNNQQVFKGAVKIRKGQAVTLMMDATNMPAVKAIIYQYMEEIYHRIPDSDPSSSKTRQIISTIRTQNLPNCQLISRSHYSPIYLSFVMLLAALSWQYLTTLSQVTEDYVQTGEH

[43] = target: Sarcoplasmic/endoplasmic reticulum calcium ATPase 2 (Homo sapiens) (UniProt P16615)
Sarcoplasmic/endoplasmic reticulum calcium ATPase 2 (Homo sapiens), sequence (P16615 whole entry): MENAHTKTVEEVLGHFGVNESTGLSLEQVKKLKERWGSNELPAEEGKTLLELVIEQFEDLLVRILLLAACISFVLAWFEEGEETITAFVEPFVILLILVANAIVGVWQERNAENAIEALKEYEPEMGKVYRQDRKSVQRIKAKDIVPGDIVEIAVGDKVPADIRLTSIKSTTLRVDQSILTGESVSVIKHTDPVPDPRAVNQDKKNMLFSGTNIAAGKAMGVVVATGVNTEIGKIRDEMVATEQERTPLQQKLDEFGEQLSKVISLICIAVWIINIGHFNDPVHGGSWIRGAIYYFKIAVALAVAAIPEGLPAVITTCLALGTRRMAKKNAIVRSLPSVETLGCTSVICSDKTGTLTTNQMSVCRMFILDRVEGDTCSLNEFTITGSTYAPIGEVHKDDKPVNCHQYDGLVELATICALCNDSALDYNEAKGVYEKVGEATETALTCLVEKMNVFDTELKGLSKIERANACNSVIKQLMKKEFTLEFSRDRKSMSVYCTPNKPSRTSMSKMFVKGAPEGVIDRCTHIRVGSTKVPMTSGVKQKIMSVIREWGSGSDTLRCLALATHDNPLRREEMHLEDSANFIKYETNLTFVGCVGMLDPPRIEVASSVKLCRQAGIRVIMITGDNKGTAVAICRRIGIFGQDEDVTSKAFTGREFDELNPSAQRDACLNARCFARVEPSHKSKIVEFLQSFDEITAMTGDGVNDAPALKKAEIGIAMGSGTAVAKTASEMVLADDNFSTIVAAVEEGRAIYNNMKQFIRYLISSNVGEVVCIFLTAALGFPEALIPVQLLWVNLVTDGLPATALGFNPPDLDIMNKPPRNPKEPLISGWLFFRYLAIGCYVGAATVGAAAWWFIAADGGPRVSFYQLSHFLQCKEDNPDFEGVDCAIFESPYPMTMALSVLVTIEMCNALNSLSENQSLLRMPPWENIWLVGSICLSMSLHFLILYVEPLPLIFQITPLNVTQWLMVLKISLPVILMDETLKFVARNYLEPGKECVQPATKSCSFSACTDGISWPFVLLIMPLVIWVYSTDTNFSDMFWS

[44] = target: Large ribosomal subunit protein bL12m (Homo sapiens) (UniProt P52815)
[45] = target: CDK5 and ABL1 enzyme substrate 1 (Homo sapiens) (UniProt Q8TDN4)
[46] = target: Large ribosomal subunit protein uL11 (Homo sapiens) (UniProt P30050)
[47] = target: Small ribosomal subunit protein eS12 (Homo sapiens) (UniProt P25398)
[48] = target: Pyruvate dehydrogenase E1 component subunit alpha, somatic form, mitochondrial (Homo sapiens) (UniProt P08559)
Pyruvate dehydrogenase E1 component subunit alpha, somatic form, mitochondrial (Homo sapiens), sequence (P08559 whole entry): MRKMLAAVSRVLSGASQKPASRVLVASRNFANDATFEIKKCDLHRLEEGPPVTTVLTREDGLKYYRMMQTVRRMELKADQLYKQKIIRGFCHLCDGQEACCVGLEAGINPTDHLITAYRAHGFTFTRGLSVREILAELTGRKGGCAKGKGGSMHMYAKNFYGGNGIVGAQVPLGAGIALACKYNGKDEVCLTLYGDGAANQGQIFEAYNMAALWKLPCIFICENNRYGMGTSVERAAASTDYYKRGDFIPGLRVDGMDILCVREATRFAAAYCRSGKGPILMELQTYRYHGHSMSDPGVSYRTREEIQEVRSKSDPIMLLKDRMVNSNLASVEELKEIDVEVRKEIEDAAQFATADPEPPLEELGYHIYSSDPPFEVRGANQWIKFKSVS
Note: assay method not described here.

ADP-ribosylation factor-like protein 1 (Homo sapiens), sequence (P40616 whole entry): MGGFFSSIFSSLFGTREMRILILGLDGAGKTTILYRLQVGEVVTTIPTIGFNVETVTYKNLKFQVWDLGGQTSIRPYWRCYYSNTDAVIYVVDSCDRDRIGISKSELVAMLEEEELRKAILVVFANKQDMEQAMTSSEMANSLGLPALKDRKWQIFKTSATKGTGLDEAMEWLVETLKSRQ

## Cc1ccc(C(=O)Nc2cccc(C(F)(F)F)c2)cc1Nc1nc(-c2cccnc2)nc2c1cnn2C
[1]
  ED50: 0.0833 µM
[2]
  ED50: 0.000716 µM
[3]
  ED50: 0.00514 µM
[4]
  ED50: 0.0605 µM
[5]
  ED50: 0.0139 µM
[6]
  ED50: 1.14 µM
[7]
  ED50: 3.11 µM
[8]
  ED50: 0.0482 µM
[9]
  ED50: 3.14 µM
[10]
  ED50: 24.3 µM
[11]
  ED50: 13.1 µM
[12]
  ED50: 0.000308 µM
[13]
  ED50: 3.03 µM
[14]
  ED50: 13.8 µM
[15]
  ED50: 7.4 µM
[16]
  ED50: 0.103 µM
[17]
  ED50: 0.00972 µM
[18]
  ED50: 0.934 µM
[19]
  ED50: 0.0365 µM
[20]
  ED50: 16.8 µM
[21]
  ED50: 4.03 µM
[22]
  ED50: 91.8 µM
[23]
  ED50: 0.0114 µM
[24]
  ED50: 0.0189 µM
[25]
  ED50: 4.63 µM
[26]
  ED50: 6.56 µM
[27]
  ED50: 0.00162 µM
[28]
  ED50: 0.0376 µM
[29]
  ED50: 0.00259 µM
[30]
  ED50: 2.53 µM
[31]
  ED50: 0.248 µM
[32]
  ED50: 0.735 µM
[33]
  ED50: 0.00528 µM
[34]
  ED50: 22.6 µM
[35]
  ED50: 0.0311 µM
[36]
  ED50: 0.0234 µM
[37]
  ED50: 0.108 µM
[38]
  ED50: 18.9 µM
[39]
  ED50: 3.42 µM
[40]
  ED50: 2.99 µM
[41]
  ED50: 0.0264 µM
[42]
  ED50: 3.81 µM
[43]
  ED50: 9.67 µM
[44]
  ED50: 7.74 µM
[45]
  ED50: 0.993 µM
[46]
  ED50: 3.63 µM
[47]
  ED50: 0.171 µM
[48]
  ED50: 0.101 µM

## Cc1ccc(C(=O)Nc2cccc(C(F)(F)F)c2)cc1Nc1nc(-c2cccnc2)nc2nn(C)cc12
[1]
  ED50: 21400 µM
[2]
  ED50: 2.85 µM
[3]
  ED50: 16.7 µM
[4]
  ED50: 19.6 µM
[5]
  ED50: 0.178 µM
[6]
  ED50: 0.0163 µM
[7]
  ED50: 0.00782 µM
[8]
  ED50: 2.98 µM
[9]
  ED50: 0.0301 µM
[10]
  ED50: 24.5 µM
[11]
  ED50: 2.15 µM
[12]
  ED50: 0.0318 µM
[13]
  ED50: 7.5 µM
[14]
  ED50: 0.42 µM
[15]
  ED50: 0.169 µM
[16]
  ED50: 0.0206 µM
[17]
  ED50: 3.4 µM
[18]
  ED50: 0.00129 µM
[19]
  ED50: 4.12 µM
[20]
  ED50: 0.00606 µM
[21]
  ED50: 12.5 µM
[22]
  ED50: 0.00477 µM
[23]
  ED50: 0.000491 µM
[24]
  ED50: 0.0214 µM
[25]
  ED50: 0.265 µM
[26]
  ED50: 0.162 µM
[27]
  ED50: 0.543 µM
[28]
  ED50: 0.00647 µM
[29]
  ED50: 2.63 µM
[30]
  ED50: 4.67 µM
[31]
  ED50: 0.000276 µM
[32]
  ED50: 20400 µM
[33]
  ED50: 7.92 µM
[34]
  ED50: 0.349 µM
[35]
  ED50: 0.0289 µM
[36]
  ED50: 0.082 µM
[37]
  ED50: 0.00933 µM
[38]
  ED50: 15.8 µM
[39]
  ED50: 0.229 µM
[40]
  ED50: 8.65 µM
[41]
  ED50: 10.3 µM
[42]
  ED50: 2.93 µM
[43]
  ED50: 0.0232 µM
[44]
  ED50: 0.117 µM
[45]
  ED50: 0.175 µM
[46]
  ED50: 0.0513 µM
[47]
  ED50: 0.254 µM
[48]
  ED50: 0.492 µM

Source: ChEMBL document CHEMBL5649169 (ChemMedChem, 2018)
